SMILES strings stand for the structures.

As a reminder, the IC50 is the concentration that inhibits the measured activity by half.

Series [1] concerns naive CD62LhiCD4+CD25− LN T cells. In words: Foxp3 induction in newly activated naive CD4 T cells (intracellular staining). The class given is cell-based, mouse. The settings on record: for percentage of cells expressing Foxp3: added 18 hours after activation with TCR signal deprivation, read within 24-48 hours; for effect on Foxp3 expression (in words): newly activated T cells deprived of TCR signals; for Foxp3 expression in control cultures, TCR signal deprived cultures subtracted: serum free AIM-V medium, without anti TGFβ and SB431542, 24-48 hours / 2 days. The procedure: Mouse strains, cell sorting and culture Animal work was carried out according the Animals (Scientific Procedures) Act, UK. Lymph node (LN) cells were stained, analysed and sorted by flow cytometry as described (Cobb et al 2005 J. Exp. Med. 201: 1367-1373). Intracellular staining for Foxp3 protein was done as advised by the manufacturers (eBiosciences.com). The phosphorylation syatus of S6 ribosomal protein was determined using anti pS6 Ser235/236 (Cellsignaling cat.no. 2211, http://www.cellsignal.com) using the eBioscience Foxp3 staining kit and anti rabbit IgG-FITC or IgG-Cy5 (Jackson Immunoresearch). For induction of Foxp3 expression, sorted LN CD4+ CD25− CD62Lhi T cells were cultured at 1-3×10^6/ml with plate bound anti-TCRβ. […] After 18 hours the cells were either left in place for continued TCR stimulation or moved to uncoated wells with the indicated additives. To assess regulatory function, CD4 T cells cultured as indicated were titrated into round bottom wells containing either 1×10^5 CFSE labeled total LN cells or 5×10^4 CFSE labeled CD4^+ CD25^− T cells and 1×10^5 mitomycin-C treated (25 μg/ml, 20 min, 37° C.) T cell depleted splenocytes with the indicated concentrations of anti CD3 (2C11, Pharmingen). CD4 T cell CFSE profiles were recorded between 48 and 72 hours later.
Mice, Cell Sorting and Culture. Animal work was carried out according to the Animals (Scientific Procedures) Act, UK. Lymph node (LN) cells or thymocytes from wild type were stained, analysed and sorted by flow cytometry as described (Thompson et al., 2007 Immunity VoI 26 pp 335-344) from wild type (C57BL/6, BALB/c or C57BL/6×129) mice or from Rag1 deficient H2^b AND TCR transgenic mice. Antigen presenting cells were derived from bone marrow in the presence of GM-CSF and incubated with antigenic peptide. Intracellular staining for Foxp3 protein was done as advised by the manufacturers (eBiosciences.com). The phosphorylation status of S6 ribosomal protein was determined using anti pS6 Ser235/236 (Cell Signaling cat.no. 2211, http://www.cellsignal.com) using the eBioscience Foxp3 staining kit and anti rabbit IgG-FITC or IgG-Cy5 (Jackson ImmunoResearch). […] After 18 hours the cells were either left in place for continued TCR stimulation or moved to uncoated wells with the indicated additives. To assess regulatory function, CD4 T cells cultured as indicated were titrated into round bottom wells containing either 1×10^5 CFSE labeled total LN cells or 5×10^4 CFSE labeled CD4^+CD25^− T cells and 1×10^5 mitomycin-C treated (25 μg/ml, 20 min, 37° C.) T cell depleted splenocytes with the indicated concentrations of anti CD3 (2C11, Pharmingen). CD4 T cell CFSE profiles were recorded between 48 and 72 hours later.

Another series has as its target PI3KC2α (Homo sapiens, UniProt O00443). The following applies: unit inferred; read-out: Specificity for PI3KC2α (IC50 determined in vitro); cited from earlier work.
In another series the target is PI4KIIα (Homo sapiens, UniProt Q9BTU6). The following applies: unit inferred; read-out: Specificity for PI4KIIα (IC50 determined in vitro); cited from earlier work.
The target of a further series is PI4KIIIα (Homo sapiens, UniProt P42356). The settings on record: unit inferred; read-out: Specificity for PI4KIIIα (IC50 determined in vitro); cited from earlier work.
Another series has as its target ATR (Homo sapiens, UniProt Q13535). The following applies: unit inferred; read-out: Specificity for ATR (IC50 determined in vitro); cited from earlier work.
In a further series the target is ATM (Homo sapiens, UniProt Q13315). The settings on record: unit inferred; read-out: Specificity for ATM (IC50 determined in vitro); cited from earlier work.
In series [2] the test system is PI4P5KIα. The following applies: second PI4P5KIα line; unit inferred; read-out: Specificity for PI4P5KIα (IC50 determined in vitro); cited from earlier work.
Another series has as its target PI3KC2β (Homo sapiens, UniProt O00750). The settings on record: unit inferred; read-out: Specificity for PI3KC2β (IC50 determined in vitro); cited from earlier work.
The target of another series is PI4KIIIβ (Homo sapiens, UniProt Q9UBF8). The following applies: unit inferred; read-out: Specificity for PI4KIIIβ (IC50 determined in vitro); cited from earlier work.
The target in another series is DNA-PK (Homo sapiens, UniProt P78527). The following applies: unit inferred; read-out: Specificity for DNA-PK (IC50 determined in vitro); cited from earlier work.
For the next series, the target named is mTORC1 (Homo sapiens, UniProt P42345). The following applies: unit inferred; read-out: Specificity for mTORC1 (IC50 determined in vitro); cited from earlier work.
Series [3] deals with PI4P5KIα (Homo sapiens, UniProt Q99755). The following applies: first PI4P5KIα line; unit inferred; read-out: Specificity for PI4P5KIα (IC50 determined in vitro); cited from earlier work.
The target in another series is T1, PI5P4KIIβ (Homo sapiens, UniProt P78356).
T1 sequence (P78356 1-416): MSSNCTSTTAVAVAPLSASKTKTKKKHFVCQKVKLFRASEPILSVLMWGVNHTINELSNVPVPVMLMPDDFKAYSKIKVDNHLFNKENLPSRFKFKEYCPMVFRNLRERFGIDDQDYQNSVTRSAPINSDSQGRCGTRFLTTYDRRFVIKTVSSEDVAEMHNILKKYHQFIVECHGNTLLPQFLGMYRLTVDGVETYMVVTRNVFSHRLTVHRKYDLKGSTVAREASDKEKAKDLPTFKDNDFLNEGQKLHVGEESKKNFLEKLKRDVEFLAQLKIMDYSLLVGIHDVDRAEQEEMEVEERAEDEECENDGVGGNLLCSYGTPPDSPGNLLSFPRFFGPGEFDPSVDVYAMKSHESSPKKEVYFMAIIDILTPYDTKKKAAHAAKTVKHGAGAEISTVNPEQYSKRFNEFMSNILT
The settings on record: unit inferred; read-out: Specificity for PI5P4KIIβ (IC50 determined in vitro); cited from earlier work.

Setting [4] is: serum free AIM-V, anti TGFβ 3 μg/ml, SB431542 20 μM.

Chain of PI3KC2α (O00443 whole entry, species assumed): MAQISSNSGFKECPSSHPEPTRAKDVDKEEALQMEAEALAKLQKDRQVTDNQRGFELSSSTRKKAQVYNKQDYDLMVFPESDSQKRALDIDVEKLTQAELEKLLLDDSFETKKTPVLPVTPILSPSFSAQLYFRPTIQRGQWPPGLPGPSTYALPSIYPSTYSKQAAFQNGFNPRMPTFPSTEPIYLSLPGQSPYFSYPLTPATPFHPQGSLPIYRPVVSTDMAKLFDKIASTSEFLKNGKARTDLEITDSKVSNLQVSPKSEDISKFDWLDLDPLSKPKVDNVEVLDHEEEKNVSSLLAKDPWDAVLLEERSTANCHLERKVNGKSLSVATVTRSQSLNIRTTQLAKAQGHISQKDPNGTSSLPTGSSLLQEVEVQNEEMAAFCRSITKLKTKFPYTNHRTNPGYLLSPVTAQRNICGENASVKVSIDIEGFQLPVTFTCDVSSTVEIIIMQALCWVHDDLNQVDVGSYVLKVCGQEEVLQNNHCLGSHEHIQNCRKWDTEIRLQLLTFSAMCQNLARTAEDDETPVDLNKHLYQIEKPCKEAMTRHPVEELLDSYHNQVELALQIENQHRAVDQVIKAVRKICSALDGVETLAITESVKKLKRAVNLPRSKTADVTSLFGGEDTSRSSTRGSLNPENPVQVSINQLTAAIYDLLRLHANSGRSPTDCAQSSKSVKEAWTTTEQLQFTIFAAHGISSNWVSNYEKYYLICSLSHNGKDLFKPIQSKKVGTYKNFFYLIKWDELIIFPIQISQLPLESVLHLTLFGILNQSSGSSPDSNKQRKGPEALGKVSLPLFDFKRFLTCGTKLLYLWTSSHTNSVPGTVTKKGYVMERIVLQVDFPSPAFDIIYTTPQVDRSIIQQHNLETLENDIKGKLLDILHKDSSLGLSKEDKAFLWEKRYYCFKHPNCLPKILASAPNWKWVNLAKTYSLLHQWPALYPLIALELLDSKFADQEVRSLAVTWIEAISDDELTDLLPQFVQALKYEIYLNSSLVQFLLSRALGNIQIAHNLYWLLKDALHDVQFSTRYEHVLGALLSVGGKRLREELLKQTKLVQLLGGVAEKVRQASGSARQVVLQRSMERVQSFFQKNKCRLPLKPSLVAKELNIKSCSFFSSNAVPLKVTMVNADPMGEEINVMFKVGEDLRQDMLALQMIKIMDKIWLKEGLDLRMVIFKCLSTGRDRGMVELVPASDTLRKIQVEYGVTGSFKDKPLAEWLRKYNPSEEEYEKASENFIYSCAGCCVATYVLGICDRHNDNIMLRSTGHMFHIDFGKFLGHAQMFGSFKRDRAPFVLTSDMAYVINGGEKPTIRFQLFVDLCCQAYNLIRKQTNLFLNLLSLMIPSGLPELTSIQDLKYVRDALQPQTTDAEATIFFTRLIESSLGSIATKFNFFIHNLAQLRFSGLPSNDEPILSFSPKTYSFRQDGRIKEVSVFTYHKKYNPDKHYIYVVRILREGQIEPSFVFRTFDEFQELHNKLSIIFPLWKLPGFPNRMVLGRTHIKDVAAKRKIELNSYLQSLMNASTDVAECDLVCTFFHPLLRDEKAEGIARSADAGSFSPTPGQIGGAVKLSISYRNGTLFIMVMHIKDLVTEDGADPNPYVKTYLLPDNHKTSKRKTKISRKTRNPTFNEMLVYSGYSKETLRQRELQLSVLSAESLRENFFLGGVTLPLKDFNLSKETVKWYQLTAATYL
Chain of ATR (Q13535 whole entry): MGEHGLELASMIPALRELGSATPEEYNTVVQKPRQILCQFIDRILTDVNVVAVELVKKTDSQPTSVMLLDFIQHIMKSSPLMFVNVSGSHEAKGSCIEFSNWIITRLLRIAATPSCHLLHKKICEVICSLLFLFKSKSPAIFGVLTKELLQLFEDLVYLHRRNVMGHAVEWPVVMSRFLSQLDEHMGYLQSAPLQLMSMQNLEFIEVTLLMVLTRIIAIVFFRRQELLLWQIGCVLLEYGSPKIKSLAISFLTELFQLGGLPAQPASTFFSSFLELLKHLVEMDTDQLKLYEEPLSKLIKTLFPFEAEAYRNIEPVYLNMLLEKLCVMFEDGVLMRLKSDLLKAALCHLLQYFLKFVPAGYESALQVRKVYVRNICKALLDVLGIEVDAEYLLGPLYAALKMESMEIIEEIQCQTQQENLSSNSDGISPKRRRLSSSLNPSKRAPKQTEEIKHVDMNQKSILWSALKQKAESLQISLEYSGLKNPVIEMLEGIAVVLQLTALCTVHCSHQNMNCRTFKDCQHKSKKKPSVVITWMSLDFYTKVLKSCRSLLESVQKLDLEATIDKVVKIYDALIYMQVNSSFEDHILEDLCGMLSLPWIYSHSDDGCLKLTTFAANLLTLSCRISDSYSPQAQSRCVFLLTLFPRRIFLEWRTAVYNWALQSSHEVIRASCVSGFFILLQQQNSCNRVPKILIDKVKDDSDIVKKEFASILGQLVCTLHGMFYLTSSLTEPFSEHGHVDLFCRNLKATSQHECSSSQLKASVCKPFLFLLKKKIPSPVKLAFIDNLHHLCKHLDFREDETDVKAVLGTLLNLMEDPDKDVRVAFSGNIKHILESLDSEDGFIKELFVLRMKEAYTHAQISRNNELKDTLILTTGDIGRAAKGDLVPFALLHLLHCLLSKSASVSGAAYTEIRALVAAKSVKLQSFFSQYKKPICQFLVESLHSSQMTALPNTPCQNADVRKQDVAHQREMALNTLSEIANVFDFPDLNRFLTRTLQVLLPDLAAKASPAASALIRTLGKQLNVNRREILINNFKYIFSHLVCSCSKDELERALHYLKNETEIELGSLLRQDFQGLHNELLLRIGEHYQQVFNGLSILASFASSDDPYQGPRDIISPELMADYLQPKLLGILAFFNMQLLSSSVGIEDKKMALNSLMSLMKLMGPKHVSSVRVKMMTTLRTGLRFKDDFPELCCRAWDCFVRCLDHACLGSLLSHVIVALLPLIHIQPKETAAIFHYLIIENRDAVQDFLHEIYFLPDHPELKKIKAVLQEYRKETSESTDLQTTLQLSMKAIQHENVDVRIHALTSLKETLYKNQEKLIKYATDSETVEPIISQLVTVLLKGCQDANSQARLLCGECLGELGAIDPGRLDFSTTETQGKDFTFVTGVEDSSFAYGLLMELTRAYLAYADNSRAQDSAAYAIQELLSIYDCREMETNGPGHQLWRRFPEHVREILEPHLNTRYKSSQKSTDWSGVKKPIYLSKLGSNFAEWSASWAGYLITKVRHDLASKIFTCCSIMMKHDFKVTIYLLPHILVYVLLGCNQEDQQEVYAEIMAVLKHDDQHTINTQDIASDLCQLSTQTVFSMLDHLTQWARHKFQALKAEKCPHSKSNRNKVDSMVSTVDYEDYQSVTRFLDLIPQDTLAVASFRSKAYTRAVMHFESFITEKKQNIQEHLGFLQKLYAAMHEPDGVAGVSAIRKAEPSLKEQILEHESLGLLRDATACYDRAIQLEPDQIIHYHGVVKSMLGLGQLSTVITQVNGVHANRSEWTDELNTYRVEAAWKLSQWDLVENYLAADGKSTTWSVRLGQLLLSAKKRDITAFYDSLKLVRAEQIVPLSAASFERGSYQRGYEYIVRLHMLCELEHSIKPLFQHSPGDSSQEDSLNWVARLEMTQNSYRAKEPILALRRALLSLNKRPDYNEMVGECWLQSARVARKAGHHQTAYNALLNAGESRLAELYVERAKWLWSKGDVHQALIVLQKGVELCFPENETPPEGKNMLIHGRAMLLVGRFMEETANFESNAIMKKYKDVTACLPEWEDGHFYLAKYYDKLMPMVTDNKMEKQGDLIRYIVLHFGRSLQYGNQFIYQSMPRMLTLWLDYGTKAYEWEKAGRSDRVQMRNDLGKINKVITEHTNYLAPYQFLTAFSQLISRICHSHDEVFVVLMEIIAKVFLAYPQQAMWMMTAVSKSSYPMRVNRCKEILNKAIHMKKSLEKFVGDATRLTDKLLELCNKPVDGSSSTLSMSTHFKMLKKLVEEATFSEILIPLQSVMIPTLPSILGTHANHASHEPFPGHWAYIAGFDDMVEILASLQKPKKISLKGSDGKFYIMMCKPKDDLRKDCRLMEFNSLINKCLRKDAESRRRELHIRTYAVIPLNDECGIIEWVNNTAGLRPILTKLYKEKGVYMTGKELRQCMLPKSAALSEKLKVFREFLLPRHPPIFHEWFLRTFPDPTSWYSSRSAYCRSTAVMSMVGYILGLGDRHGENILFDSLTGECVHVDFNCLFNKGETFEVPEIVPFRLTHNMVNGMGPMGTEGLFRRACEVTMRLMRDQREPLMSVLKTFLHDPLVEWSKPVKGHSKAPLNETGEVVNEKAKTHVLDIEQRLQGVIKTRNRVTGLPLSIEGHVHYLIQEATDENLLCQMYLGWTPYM
Chain of ATR (Q8WXE1 whole entry partner): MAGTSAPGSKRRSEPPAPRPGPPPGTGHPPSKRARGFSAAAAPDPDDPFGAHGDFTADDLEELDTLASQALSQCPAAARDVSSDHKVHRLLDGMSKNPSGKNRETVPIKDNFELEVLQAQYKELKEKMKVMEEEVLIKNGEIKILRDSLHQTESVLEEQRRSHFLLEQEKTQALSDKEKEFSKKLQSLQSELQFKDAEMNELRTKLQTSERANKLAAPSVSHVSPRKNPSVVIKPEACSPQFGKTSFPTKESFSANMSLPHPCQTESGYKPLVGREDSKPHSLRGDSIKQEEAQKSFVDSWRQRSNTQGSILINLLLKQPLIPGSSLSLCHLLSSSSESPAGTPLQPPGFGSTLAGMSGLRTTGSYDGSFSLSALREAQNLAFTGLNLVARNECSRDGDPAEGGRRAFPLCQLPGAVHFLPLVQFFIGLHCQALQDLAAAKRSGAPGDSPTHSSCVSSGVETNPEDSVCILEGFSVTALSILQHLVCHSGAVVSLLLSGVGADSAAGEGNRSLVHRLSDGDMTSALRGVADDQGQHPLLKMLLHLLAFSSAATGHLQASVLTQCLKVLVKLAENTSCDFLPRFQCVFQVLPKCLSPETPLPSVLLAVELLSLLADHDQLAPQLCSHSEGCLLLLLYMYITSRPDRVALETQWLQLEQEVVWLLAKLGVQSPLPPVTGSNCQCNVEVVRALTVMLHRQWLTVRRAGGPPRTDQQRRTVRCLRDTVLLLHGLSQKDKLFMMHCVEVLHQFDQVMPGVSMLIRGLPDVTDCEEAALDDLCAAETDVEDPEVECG

`O=c1cc(N2CCNCC2)oc2c(-c3ccccc3)cccc12` [Ly303511, 2-piperazinyl-8-phenyl-4H-1-benzopyran-4-one]: the “percentage of cells expressing Foxp3” value in series [1] is recorded as 6.6±3.0%.
Take `Oc1cccc(-c2nc(N3CCOCC3)c3oc4ncccc4c3n2)c1` [PI-103]: in series [1] (IC-87114 down to 0.01 μM), the “increase in Foxp3 expressing cells over and above TCR deprivation alone” value is recorded as over 20%. Also, in series [1], the “effect on Foxp3 expression (in words)” value is recorded as “strongly induced Foxp3”. Further, in series [1], the “Foxp3 expression in control cultures, TCR signal deprived cultures subtracted” value (from here on “Foxp3 expression in control cultures”) is reported as 35.1±3.8%. For the same compound, the half-inhibitory concentration (IC50) is about 1000 nM at PI3KC2α; over 100000 nM at PI4KIIα; over 100000 nM on PI4KIIIα; 850 nM at ATR; 920 nM on ATM; over 100000 nM with PI4P5KIα [2].
Consider `COc1ccc2c(c1OC)N=C(NC(=O)c1cccnc1)N1CCN=C21` [PIK90], for which, in series [1] (0.1 μM), the “effect on Foxp3 expression at 0.1 μM” value is listed as “strongly induced Foxp3”. Moreover, the “Foxp3 expression in control cultures” value in series [1] was 36.0±12.9%. For the same compound, the IC50 at PI3KC2α was 47 nM; on PI3KC2β, 64 nM; on PI4KIIα, over 100000 nM; on PI4KIIIα, 830 nM; at PI4KIIIβ, 3100 nM; on ATR it was 15000 nM. Also, the IC50 at ATM is 610 nM; on DNA-PK it was 13 nM; on mTORC1, 1050 nM; at PI4P5KIα [3] it was over 100000 nM; with PI4P5KIα [2] it was over 100000 nM; on PI5P4KIIβ, over 100000 nM.
Regarding `NC(=O)c1ccc(-c2nc(-c3ccc4c(c3)OCO4)c(-c3ccccn3)[nH]2)cc1` [SB431542], in series [1] (setting [4]), the “effect on Foxp3 induction by PI3K/mTOR inhibitors” value is “had no effect” and the “reduction of Foxp3 induction by TGFβ” value is listed as 96%.
With `CO[C@H]1C[C@@H]2CC[C@@H](C)[C@@](O)(O2)C(=O)C(=O)N2CCCC[C@H]2C(=O)O[C@H]([C@H](C)C[C@@H]2CC[C@@H](O)[C@H](OC)C2)CC(=O)[C@H](C)/C=C(\C)[C@@H](O)[C@@H](OC)C(=O)[C@H](C)C[C@H](C)/C=C/C=C/C=C/1C` [rapamycin], in series [1] (18 hour activated CD4 T cells), the “% Foxp3+ cells (nutrient deprivation experiment)” value came to 25 % Foxp3^+. Moreover, in series [1], the “percentage of cells expressing Foxp3” value came to 26.8±14.4% and the “Foxp3 expression in control cultures” value stood at 28.6±9.0%.
Take `O=c1[nH]c2ccccc2n1C1CCN(Cc2ccc(-c3nc4cc5nc[nH]c5cc4nc3-c3ccccc3)cc2)CC1` [Akti-1/2]: the “effect on Foxp3 expression (in words)” value was “enhanced Foxp3 expression” in series [1] and “induces Foxp3 expression” in [1] (listed as Akti 1/2).
For `CC(C)C[C@H](NC(=O)[C@H](Cc1ccccc1)C[C@@H](O)[C@H](Cc1ccccc1)NC(=O)OC(C)(C)C)C(=O)N[C@@H](Cc1ccccc1)C(N)=O` [L-685458], the “effect on Foxp3 expression (in words)” value in series [1] is “None of these detectably enhanced the expression of Foxp3”.
As to `O=C1NC(=O)/C(=C\c2ccc3nccnc3c2)S1` [SA-605240], in series [1] (listed as AS-605240), the “effect on Foxp3 expression (in words)” value is “affected Foxp3 only at concentrations far in excess of its IC50 for p110γ”.
On to `Cc1ccc([N+](=O)[O-])cc1S(=O)(=O)N(C)/N=C/c1cnc2ccc(Br)cn12` [PIK75], for which the “toxicity in the Foxp3 induction assay” value in series [1] (over the duration of the assay) is “toxicity over the duration of our assay”.
For the compound `COC[C@H]1OC(=O)c2coc3c2[C@@]1(C)C1=C(C3=O)[C@@H]2CCC(=O)[C@@]2(C)C[C@H]1OC(C)=O` [Wortmannin], in series [1], the “percentage of cells expressing Foxp3” value is on record as 17.3±5.3%.

Source of the values: patent US9314485B2, “Use of PI3K M-TOR and AKT inhibitors to induce FOXP3 expression and generate regulatory T cells” (Medical Research Council, priority 2006, dated 2016).
